{"source": "patent EP4494641A1", "about": "“SITAGLIPTIN IS A MALT1 INHIBITOR” (Cloudpharm Private Company, priority 2023, dated 2025)", "key": {"MALT1": {"target": "T1, MALT1 (Homo sapiens, UniProt Q9UDY8)", "T1 construct": "endogenous in cells", "T1 sequence (Q9UDY8 1-824)": "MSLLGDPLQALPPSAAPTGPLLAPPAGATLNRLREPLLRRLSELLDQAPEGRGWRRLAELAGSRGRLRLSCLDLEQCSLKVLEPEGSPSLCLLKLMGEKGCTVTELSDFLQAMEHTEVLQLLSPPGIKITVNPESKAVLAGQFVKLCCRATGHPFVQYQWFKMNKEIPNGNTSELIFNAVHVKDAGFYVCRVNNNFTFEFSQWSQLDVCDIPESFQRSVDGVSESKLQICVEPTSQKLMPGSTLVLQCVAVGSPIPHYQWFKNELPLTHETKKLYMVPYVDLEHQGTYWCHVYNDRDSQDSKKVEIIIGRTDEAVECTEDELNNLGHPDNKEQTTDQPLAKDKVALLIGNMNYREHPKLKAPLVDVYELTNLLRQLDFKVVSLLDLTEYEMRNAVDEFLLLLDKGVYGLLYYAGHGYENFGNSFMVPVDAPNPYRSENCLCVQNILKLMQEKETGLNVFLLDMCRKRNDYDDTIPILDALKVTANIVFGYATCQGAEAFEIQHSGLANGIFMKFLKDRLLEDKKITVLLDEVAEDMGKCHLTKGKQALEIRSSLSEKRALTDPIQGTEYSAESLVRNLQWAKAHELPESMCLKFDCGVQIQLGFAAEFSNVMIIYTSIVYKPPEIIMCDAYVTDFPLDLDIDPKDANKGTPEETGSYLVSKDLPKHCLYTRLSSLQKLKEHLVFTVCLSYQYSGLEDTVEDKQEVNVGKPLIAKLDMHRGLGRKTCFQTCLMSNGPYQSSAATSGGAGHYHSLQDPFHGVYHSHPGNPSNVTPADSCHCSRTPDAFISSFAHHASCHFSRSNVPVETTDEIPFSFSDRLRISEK", "experiment": "EC50 determination for MALT1 inhibition (Trypan blue dye-exclusion in cell lines)", "type": "cell-based", "source_text": "The term is quite general, regardless of whether a test-compound enhances or diminishes the biological parameter in question. Its equation is a modified version of the IC50 equation, taking the ratio of the response (R) to the maximum response (Rmax): {R/Rmax} = {1/ [1+(E50/I)n]}. […] However, some test-compounds achieve only partial attenuation of a biological activity, even at high concentrations. In this case, IC50 values may be misleading about potency.\nCell lines were in log phase of growth, harvested and seeded in a 96-well plate at optimum plating density. Next, cells were incubated with and without test-compounds (0.1 µM - 1 µM - 10 µM) in the presence of positive, negative and untreated controls."}, "[1]": {"test_system": "patient-derived glioblastoma cells (U3024)", "experiment": "Spheroid disintegration in patient-derived glioblastoma cells over-expressing MALT1", "type": "cell-based, human", "conditions": "10 µM; U3024 spheroids compared to untreated spheroids", "source_text": "(§1) To measure the MALT1-dependent antiproliferative effect of sitagliptin on GMB cell growth and at the same time account for biases, U3024, an established and characterized GBM cell line derived from GBM patient surgical samples was chosen (https://www.hgcc.se/). U3024 is of mesenchymal subtype (person) and is characterized by MALT1 overexpression. Cell lines were maintained in serum-free neural stem cell media to retain tumour-initiating capacity as well as tumour specific phenotypes (Pollard et al, 2009). The U87MG glioma cell line served as a bona fide human glioblastoma cell line. Cell cultures were performed in 3D. […] Cell lines were in log phase of growth, harvested and seeded in a 96-well plate at optimum plating density. […] DMSO was <0.05%."}, "[2]": {"target": "T2, recombinant full-length human MALT1 (Homo sapiens, UniProt Q9UDY8)", "T2 construct": "recombinant full-length human MALT1", "T2 sequence (Q9UDY8 1-824)": "T1 sequence (Q9UDY8 1-824)", "experiment": "Fluorogenic MALT1 proteolytic activity assay with Ac-LRSR-AMC substrate", "type": "biochemical", "conditions": "read-out: percent inhibition of MALT1 proteolytic activity", "procedure": "Fluorogenic reactions were monitored in the presence of recombinant full-length human MALT1 and Ac-LRSR-AMC (Ac-Leu-Arg-Ser-Arg-7-amino-4-methylcoumarin) - SEQ ID NO:1 - with excitation/emission wavelengths of 360/460 nm in black, low binding microtiter plates using a microplate reader. Cleavage of the Ac-LRSR-AMC substrate by MALT1 results in the release of AMC and a fluorescent signal. […] The final percent inhibition was calculated with the formula: {[fluorescence_test compound(T2-T1) - fluorescence_negative control (T2-T1)]/ [fluorescence_positive control (T2-T1) - fluorescence_negative control (T2-T1)]} × 100. […] A so-called buffer only test-condition (i.e. MALT1+Ac-LRSR-AMC substrate+buffer) served as negative control. […] MI-2 (C19H17Cl3N4O3; 2-chloro-N-[4-[5-(3,4-dichlorophenyl)-3-(2-methoxyethoxy)-1,2,4-triazol-1-yl] phenyl] acetamide) is an orthosteric and irreversible MALT1 inhibitor (Fontán et al, 2012)."}, "[3]": {"test_system": "Glioblastoma multiforme (GBM) cell growth (U3024, U87MG)", "experiment": "Antiproliferative effect on GBM cell growth, 3D cell cultures", "type": "cell-based, human", "conditions": "tested at 0.1 µM, 1 µM, and 10 µM at t=48h, 3D cultures", "source_text": "as §1, with “<0.05%. […] The results are mean ± standard deviation of three independent experiments done in triplicates. […] Three independent experiments were performed in triplicates.” for “<0.05%.”"}, "CYP3A4": {"target": "T3, CYP3A4 (Homo sapiens, UniProt P08684)", "T3 construct": "purchased Thermo Fisher Scientific (Waltham, MA, USA); host or cells: baculosomes", "T3 sequence (P08684 whole entry)": "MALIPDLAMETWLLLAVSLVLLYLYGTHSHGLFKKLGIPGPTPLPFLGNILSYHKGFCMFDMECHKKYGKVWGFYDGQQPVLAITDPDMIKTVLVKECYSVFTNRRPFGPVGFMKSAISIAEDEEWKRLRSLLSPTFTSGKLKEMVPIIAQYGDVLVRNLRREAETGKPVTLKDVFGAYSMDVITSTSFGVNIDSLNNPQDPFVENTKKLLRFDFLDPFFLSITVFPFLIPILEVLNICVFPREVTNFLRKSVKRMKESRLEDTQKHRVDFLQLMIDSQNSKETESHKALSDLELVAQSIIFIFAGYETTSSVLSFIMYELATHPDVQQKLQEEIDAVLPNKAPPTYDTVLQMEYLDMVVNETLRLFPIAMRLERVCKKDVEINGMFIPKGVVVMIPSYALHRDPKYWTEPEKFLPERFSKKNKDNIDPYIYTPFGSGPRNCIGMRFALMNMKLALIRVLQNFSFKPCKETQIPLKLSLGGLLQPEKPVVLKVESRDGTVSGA", "experiment": "CYP450 inhibition/induction, baculosomes, fluorescent substrate, kinetic model", "type": "in vitro ADME", "conditions": "1 µM; 20°C; t = 60 min", "procedure": "(§2) To determine the isozyme-specific CYP450-metabolism, baculosomes® expressing CYP1A2, CYP2A6, CYP2B6, CYP2C9, CYP2C19, CYP2D6 and CYP3A4 human CYP450 isoenzymes were purchased from Thermo Fisher Scientific (Waltham, MA, USA). All reagents were handled and prepared according to the manufacturer's protocol. Sitagliptin was tested at 1 µM. Enzymatic activity in the presence of sitagliptin was assessed based on the kinetic model for CYP1A2, CYP2A6, CYP2B6, CYP2C9, CYP2C19, CYP2D6 and CYP3A4 isoforms. Reactions took place in triplicates at 20°C. Glucose-6-phosphate at 333 mM and glucose-6-phosphate-dehydrogenase at 30 U/mL in 100 mM potassium phosphate, pH 8.0 (regeneration system) converted NADP+ (10 mM in 100 mM potassium phosphate, pH 8.0) into NADPH to initiate the CYP450 reaction. Upon the addition of the fluorescent substrate, immediately (<2 min), the fluorescence signal was monitored over time at suitable excitation and emission wavelengths by Lionheart FX (BioTek, Winooski, VT, USA). CYP450 inhibition (%) was determined based on the reaction rates (fluorescence intensity changes per unit time)."}, "CYP2D6": {"target": "T4, CYP2D6 (Homo sapiens, UniProt P10635)", "T4 construct": "purchased Thermo Fisher Scientific (Waltham, MA, USA); host or cells: baculosomes", "T4 sequence (P10635 whole entry)": "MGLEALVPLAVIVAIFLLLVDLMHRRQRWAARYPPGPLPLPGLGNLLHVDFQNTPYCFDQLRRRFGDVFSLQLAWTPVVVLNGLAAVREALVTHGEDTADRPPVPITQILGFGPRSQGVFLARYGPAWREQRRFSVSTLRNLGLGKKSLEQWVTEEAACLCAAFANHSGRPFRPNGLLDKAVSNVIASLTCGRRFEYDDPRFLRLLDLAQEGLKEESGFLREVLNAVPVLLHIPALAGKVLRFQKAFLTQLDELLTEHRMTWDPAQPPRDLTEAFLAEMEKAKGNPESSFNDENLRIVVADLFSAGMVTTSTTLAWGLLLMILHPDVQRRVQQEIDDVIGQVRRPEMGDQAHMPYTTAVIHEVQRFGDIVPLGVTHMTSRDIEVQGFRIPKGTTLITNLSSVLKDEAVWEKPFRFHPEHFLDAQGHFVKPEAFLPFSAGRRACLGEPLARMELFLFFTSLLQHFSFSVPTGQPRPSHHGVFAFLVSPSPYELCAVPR", "experiment": "CYP450 inhibition/induction, baculosomes, fluorescent substrate, kinetic model", "type": "in vitro ADME", "conditions": "1 µM; 20°C; t = 60 min", "procedure": "as §2"}, "CYP1A2": {"target": "CYP1A2 (Homo sapiens, UniProt P05177)", "sequence (P05177 whole entry)": "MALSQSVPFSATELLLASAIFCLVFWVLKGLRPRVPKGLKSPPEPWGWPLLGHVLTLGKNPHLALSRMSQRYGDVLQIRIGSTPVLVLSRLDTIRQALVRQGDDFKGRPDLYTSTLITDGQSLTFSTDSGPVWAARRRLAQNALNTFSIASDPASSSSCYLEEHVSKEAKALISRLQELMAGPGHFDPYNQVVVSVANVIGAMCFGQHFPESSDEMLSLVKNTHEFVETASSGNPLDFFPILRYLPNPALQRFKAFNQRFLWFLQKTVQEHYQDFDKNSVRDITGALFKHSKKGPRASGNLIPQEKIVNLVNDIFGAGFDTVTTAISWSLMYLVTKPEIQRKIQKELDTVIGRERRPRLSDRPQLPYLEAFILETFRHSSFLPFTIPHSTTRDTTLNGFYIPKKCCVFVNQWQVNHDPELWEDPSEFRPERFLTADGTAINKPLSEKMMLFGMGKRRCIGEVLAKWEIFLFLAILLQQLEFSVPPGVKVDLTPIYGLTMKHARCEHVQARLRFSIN", "experiment": "CYP450 inhibition/induction, baculosomes, fluorescent substrate, kinetic model", "type": "in vitro ADME", "conditions": "1 µM; 20°C; t = 60 min", "procedure": "as §2"}, "CYP2A6": {"target": "T5, CYP2A6 (Homo sapiens, UniProt P11509)", "T5 construct": "purchased Thermo Fisher Scientific (Waltham, MA, USA); host or cells: baculosomes", "T5 sequence (P11509 1-494)": "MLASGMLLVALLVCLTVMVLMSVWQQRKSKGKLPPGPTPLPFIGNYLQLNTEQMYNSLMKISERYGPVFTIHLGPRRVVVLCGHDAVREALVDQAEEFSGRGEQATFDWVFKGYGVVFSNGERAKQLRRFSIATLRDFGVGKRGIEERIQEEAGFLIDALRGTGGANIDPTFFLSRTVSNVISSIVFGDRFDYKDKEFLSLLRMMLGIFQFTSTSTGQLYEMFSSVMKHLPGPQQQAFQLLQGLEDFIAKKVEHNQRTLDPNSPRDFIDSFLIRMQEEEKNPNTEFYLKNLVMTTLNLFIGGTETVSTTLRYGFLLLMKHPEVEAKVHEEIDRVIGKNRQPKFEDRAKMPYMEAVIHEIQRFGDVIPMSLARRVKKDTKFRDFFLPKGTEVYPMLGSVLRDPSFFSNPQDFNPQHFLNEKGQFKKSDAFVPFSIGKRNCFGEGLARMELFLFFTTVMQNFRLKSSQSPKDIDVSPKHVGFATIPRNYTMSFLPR", "experiment": "CYP450 inhibition/induction, baculosomes, fluorescent substrate, kinetic model", "type": "in vitro ADME", "conditions": "1 µM; 20°C; t = 60 min", "procedure": "as §2"}, "CYP2C19": {"target": "T6, CYP2C19 (Homo sapiens, UniProt P33261)", "T6 construct": "purchased Thermo Fisher Scientific (Waltham, MA, USA); host or cells: baculosomes", "T6 sequence (P33261 whole entry)": "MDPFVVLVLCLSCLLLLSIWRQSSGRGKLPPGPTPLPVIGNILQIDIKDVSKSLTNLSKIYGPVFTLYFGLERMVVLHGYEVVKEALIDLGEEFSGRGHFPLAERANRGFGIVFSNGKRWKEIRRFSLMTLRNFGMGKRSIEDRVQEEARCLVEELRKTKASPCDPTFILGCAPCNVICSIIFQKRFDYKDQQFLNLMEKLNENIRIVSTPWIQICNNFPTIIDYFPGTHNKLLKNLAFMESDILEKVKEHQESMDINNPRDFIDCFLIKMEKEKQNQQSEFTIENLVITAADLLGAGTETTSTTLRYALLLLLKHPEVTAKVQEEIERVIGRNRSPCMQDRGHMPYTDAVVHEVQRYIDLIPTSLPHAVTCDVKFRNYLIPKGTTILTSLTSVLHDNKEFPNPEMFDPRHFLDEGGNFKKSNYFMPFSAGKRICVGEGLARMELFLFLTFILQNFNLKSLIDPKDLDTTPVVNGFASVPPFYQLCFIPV", "experiment": "CYP450 inhibition/induction, baculosomes, fluorescent substrate, kinetic model", "type": "in vitro ADME", "conditions": "1 µM; 20°C; t = 60 min", "procedure": "as §2"}, "CYP2C9": {"target": "T7, CYP2C9 (Homo sapiens, UniProt P11712)", "T7 construct": "purchased Thermo Fisher Scientific (Waltham, MA, USA); host or cells: baculosomes", "T7 sequence (P11712 whole entry)": "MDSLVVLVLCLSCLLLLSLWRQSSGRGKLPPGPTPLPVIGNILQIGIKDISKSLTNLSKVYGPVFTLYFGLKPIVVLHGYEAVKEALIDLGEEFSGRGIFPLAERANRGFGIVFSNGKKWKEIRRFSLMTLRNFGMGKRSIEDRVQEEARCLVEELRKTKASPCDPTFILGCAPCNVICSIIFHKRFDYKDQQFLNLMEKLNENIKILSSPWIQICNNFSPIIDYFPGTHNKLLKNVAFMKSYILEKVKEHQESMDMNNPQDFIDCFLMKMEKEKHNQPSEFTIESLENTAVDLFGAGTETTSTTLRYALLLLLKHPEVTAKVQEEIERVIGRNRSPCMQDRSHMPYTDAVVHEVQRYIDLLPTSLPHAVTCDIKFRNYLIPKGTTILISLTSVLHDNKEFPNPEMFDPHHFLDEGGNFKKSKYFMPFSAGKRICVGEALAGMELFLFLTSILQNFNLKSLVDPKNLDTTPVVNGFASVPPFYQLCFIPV", "experiment": "CYP450 inhibition/induction, baculosomes, fluorescent substrate, kinetic model", "type": "in vitro ADME", "conditions": "1 µM; 20°C; t = 60 min", "procedure": "as §2"}, "CYP2B6": {"target": "T8, CYP2B6 (Homo sapiens, UniProt P20813)", "T8 construct": "purchased Thermo Fisher Scientific (Waltham, MA, USA); host or cells: baculosomes", "T8 sequence (P20813 1-491)": "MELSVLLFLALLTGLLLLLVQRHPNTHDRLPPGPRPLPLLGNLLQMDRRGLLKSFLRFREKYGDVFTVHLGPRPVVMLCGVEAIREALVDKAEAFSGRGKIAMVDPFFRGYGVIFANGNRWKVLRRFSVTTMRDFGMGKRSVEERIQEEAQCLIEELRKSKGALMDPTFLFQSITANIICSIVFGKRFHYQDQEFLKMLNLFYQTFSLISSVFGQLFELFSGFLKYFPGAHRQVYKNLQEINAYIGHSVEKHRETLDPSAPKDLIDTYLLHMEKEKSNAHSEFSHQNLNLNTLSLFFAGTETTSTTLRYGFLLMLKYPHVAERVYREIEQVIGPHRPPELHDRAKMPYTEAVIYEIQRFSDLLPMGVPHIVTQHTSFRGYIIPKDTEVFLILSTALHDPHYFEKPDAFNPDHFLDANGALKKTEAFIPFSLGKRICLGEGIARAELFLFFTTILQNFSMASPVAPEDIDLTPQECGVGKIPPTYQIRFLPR", "experiment": "CYP450 inhibition/induction, baculosomes, fluorescent substrate, kinetic model", "type": "in vitro ADME", "conditions": "1 µM; 20°C; t = 60 min", "procedure": "as §2"}}, "note": "Read-outs that look alike come from different tables or passages of the source."}
{"compound": "COCCOc1nc(-c2ccc(Cl)c(Cl)c2)n(-c2ccc(NC(=O)CCl)cc2)n1", "note": "[MI-2, 2-chloro-N-[4-[5-(3,4-dichlorophenyl)-3-(2-methoxyethoxy)-1,2,4-triazol-1-yl]phenyl] acetamide]", "values": [{"measurement": "EC50", "setting": "MALT1", "result": 1000, "unit": "nM"}]}
{"compound": "N[C@@H](CC(=O)N1CCn2c(nnc2C(F)(F)F)C1)Cc1cc(F)c(F)cc1F", "note": "[Sitagliptin, (3R)-3-amino-1-[3-(trifluoromethyl)-6,8-dihydro-5H-[1,2,4]triazolo[4,3-a]pyrazin-7-yl]-4-(2,4,5-trifluorophenyl)butan-1-one]", "values": [{"measurement": "inhibition of MALT1 resulting in spheroid disintegration", "setting": "[1]", "result": "spheroid disintegration"}, {"measurement": "inhibition at 10 µM", "setting": "[2]", "result": "≥ 40", "unit": "%"}, {"measurement": "antiproliferative effect on GBM cell growth", "setting": "[3]", "result": "strong antiproliferative effect"}, {"measurement": "CYP3A4 inhibition / induction", "setting": "CYP3A4", "result": "does not inhibit nor induces"}, {"measurement": "CYP2D6 inhibition / induction", "setting": "CYP2D6", "result": "does not inhibit nor induces"}, {"measurement": "CYP1A2 inhibition / induction", "setting": "CYP1A2", "result": "does not inhibit nor induces"}, {"measurement": "CYP2A6 inhibition / induction", "setting": "CYP2A6", "result": "does not inhibit nor induces"}, {"measurement": "CYP2C19 inhibition / induction", "setting": "CYP2C19", "result": "does not inhibit nor induces"}, {"measurement": "CYP2C9 inhibition / induction", "setting": "CYP2C9", "result": "does not inhibit nor induces"}, {"measurement": "CYP2B6 inhibition / induction", "setting": "CYP2B6", "result": "does not inhibit nor induces"}, {"measurement": "EC50", "setting": "MALT1; 0.1 µM - 1 µM - 10 µM, Trypan blue dye-exclusion at t=48h, mean of three independent experiments in triplicates, read-out: EC50 values", "result": 1300, "unit": "nM"}]}
